# Assay results published in the supplement of paper PMC10307832.
# Assays:
# Assay in all cases: relative viability (nuclei count vs DMSO), 5 days (fraction); higher = more cells survive
# Cediranib + OSI-027 = compound: COc1cc2c(Oc3ccc4[nH]c(C)cc4c3F)ncnc2cc1OCCCN1CCCC1 [Cediranib] + COc1cccc2cc(-c3nc([C@H]4CC[C@H](C(=O)O)CC4)n4ncnc(N)c34)[nH]c12 [OSI-027] (partner 0.5 µM)
# In short: (§1)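 One day after seeding in 1536-well plates, lung cancer cell lines were dosed by pin tool. Dosing was either single-drug or a fixed anchor-drug dose plus five library-drug doses (not always all listed) in √10 steps. After 5 days, nuclei were stained in one fix-and-stain step and counted on 4× images, and relative viability is the nuclei count of treated wells over that of vehicle wells, given as the median of duplicate plates.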
# Decitabine + Olaparib = compound: Nc1ncn([C@H]2C[C@H](O)[C@@H](CO)O2)c(=O)n1 [Decitabine] + O=C(c1cc(Cc2n[nH]c(=O)c3ccccc23)ccc1F)N1CCN(C(=O)C2CC2)CC1 [Olaparib] (partner 8 µM)
# In short: as §1
# Decitabine + Lapatinib = compound: Nc1ncn([C@H]2C[C@H](O)[C@@H](CO)O2)c(=O)n1 [Decitabine] + CS(=O)(=O)CCNCc1ccc(-c2ccc3ncnc(Nc4ccc(OCc5cccc(F)c5)c(Cl)c4)c3c2)o1 [Lapatinib] (partner 2 µM)
# In short: as §1
# Halofuginone + Olaparib = compound: O=C(C[C@H]1NCCC[C@@H]1O)Cn1cnc2cc(Br)c(Cl)cc2c1=O (racemic) [Halofuginone] + O=C(c1cc(Cc2n[nH]c(=O)c3ccccc23)ccc1F)N1CCN(C(=O)C2CC2)CC1 [Olaparib] (partner 8 µM)
# In short: as §1
cell line,measurement,setting,value
UMC-11,relative viability,Cediranib + OSI-027; first compound 0.04 µM,0.461
same,relative viability,Cediranib + OSI-027; first compound 0.4 µM,0.473
same,relative viability,Cediranib + OSI-027; first compound 4 µM,0.488
same,relative viability,Decitabine + Olaparib; first compound 0.04 µM,0.312
same,relative viability,Decitabine + Olaparib; first compound 0.1265 µM,0.301
same,relative viability,Decitabine + Olaparib; first compound 0.4 µM,0.273
same,relative viability,Decitabine + Olaparib; first compound 1.265 µM,0.218
same,relative viability,Decitabine + Olaparib; first compound 4 µM,0.2
same,relative viability,Decitabine + Lapatinib; first compound 0.04 µM,0.877
same,relative viability,Decitabine + Lapatinib; first compound 0.1265 µM,0.832
same,relative viability,Decitabine + Lapatinib; first compound 0.4 µM,0.434
same,relative viability,Decitabine + Lapatinib; first compound 1.265 µM,0.357
same,relative viability,Decitabine + Lapatinib; first compound 4 µM,0.346
same,relative viability,Halofuginone + Olaparib; first compound 0.001 µM,0.426
same,relative viability,Halofuginone + Olaparib; first compound 0.003162 µM,0.381
same,relative viability,Halofuginone + Olaparib; first compound 0.01 µM,0.566
same,relative viability,Halofuginone + Olaparib; first compound 0.03162 µM,0.471
same,relative viability,Halofuginone + Olaparib; first compound 0.1 µM,0.226
